Reference: patent US12370168B2 (scPharmaceuticals Inc., priority 2013, dated 2025)
Like-named read-outs stand apart in the source and are kept apart here.

Details: 8 mg/mL; for Osmolality / [Furosemide] / pH: three months
[1] = 25 mM Tris, nominal pH 7.0, 70° C.
[2] = 25 mM Tris, nominal pH 7.4, 70° C.
[3] = 25 mM Tris, nominal pH 8.0, 70° C.
[4] = 50 mM Tris, nominal pH 7.0, 70° C.
[5] = 50 mM Tris, nominal pH 7.4, 70° C.
[6] = 50 mM Tris, nominal pH 8.0, 70° C.
[7] = 100 mM Tris, nominal pH 7.0, 70° C.
[8] = 100 mM Tris, nominal pH 7.4, 70° C.
[9] = 100 mM Tris, nominal pH 8.0, 70° C.
[10] = 25, 50, 100 mM Tris, pH 7.0, 7.4, 8.0, 70° C., 3 months

NS(=O)(=O)c1cc(C(=O)O)c(NCc2ccco2)cc1Cl [Furosemide, 4-chloro-2-(furan-2-ylmethylamino)-5-sulfamoyl-benzoic acid]
Osmolality [1]: 308 mOsm/kg H2O
[Furosemide] [1]: <0.002 mg/mL
pH [1]: 4.44
Osmolality [2]: 299 mOsm/kg H2O
[Furosemide] [2]: <0.002 mg/mL
pH [2]: 4.57
Osmolality [3]: 297 mOsm/kg H2O
[Furosemide] [3]: 1.16 mg/mL
pH [3]: 5.26
Osmolality [4]: 305 mOsm/kg H2O
[Furosemide] [4]: <0.002 mg/mL
pH [4]: 4.50
Osmolality [5]: 311 mOsm/kg H2O
[Furosemide] [5]: <0.002 mg/mL
pH [5]: 4.73
Osmolality [6]: 311 mOsm/kg H2O
[Furosemide] [6]: 3.60 mg/mL
pH [6]: 7.30
Osmolality [7]: 306 mOsm/kg H2O
[Furosemide] [7]: <0.002 mg/mL
pH [7]: 4.54
Osmolality [8]: 312 mOsm/kg H2O
[Furosemide] [8]: 0.58 mg/mL
pH [8]: 5.68
Osmolality [9]: 303 mOsm/kg H2O
[Furosemide] [9]: 3.67 mg/mL
pH [9]: 7.56
change in furosemide concentration [10]: decreased significantly
change in osmolality [10]: slightly increased
change in pH [10]: decreased significantly
color of samples [10]: dark brown
